Data set [1] is described as follows: Body weight change from day -2 in LPS-induced lung inflammation model. Type of data set: in vivo, mice. Conditions: vs vehicle disease control; for body weight change from day -2: 6 hours post-LPS. The source says:
(§1) All animals survived to study termination.
Body weight measurements were collected and the animals were euthanized for necropsy and terminal sample collection on day 0 or day 1.
The mice were weighed for randomization on study day −2 and were weighed again on day 0.

Another data set has as its system TNFα. As to the kind of experiment: Luminex cytokine levels in BAL: TNFα. Type of data set: in vivo, mice. The conditions noted are these: vs vehicle disease control.
Text: as §1
• 1. […] Seal the plate with a plate sealer.

The test system of data set [2] is hospitalized patients with coronavirus disease 2019 (COVID-19). The data set is described as follows: Randomized, double-blind, placebo-controlled clinical trial for prevention and treatment of ARDS. Type of data set: in vivo, human. The conditions noted are these: 900 mg once daily for 14 days. How it is done:
This example describes use of 5-(3-chlorophenyl)-3-hydroxypyridine-2-carbonyl]amino}acetic acid (vadadustat) in a multicenter, randomized, double-blind, placebo-controlled Bayesian adaptive clinical for the prevention and treatment of acute respiratory distress syndrome (ARDS) in hospitalized patients with coronavirus disease 2019 (COVID-19).
Following screening, patients are randomized in a 1:1 ratio to either vadadustat 900 mg or placebo. Randomization is stratified by site, and MSOFA score at baseline (<4 and >4).
A subject may receive vadadustat (e.g., 900 mg vadadustat as 6 tablets once daily) for 14 days and without regard for meals at approximately the same time each day. Tablets can be crushed using a pill crusher and administered to an intubated patient through a nasogastric tube.
Efficacy may also be assessed according to any of the following (including any combination thereof): • 1. The proportion of patients at day 14 who are dead (8) or hospitalized, on invasive mechanical ventilation or ECMO (7) or hospitalized, on non-invasive ventilation or high flow oxygen devices (6) on the NIAID-OS. • 2. Proportions of patients with a score of 0 at 14 days on the MSOFA (Modified Sequential Organ Failure Assessment) scale:
• 3. Average MSOFA scores at day 7 and day 14. • 4. Proportion of patients who develop ARDS or experienced increased ARDS severity from baseline based on the Berlin scale. • 5. Ventilator-free survival at day 7 and day 14. • 6. Overall survival at day 7 and day 14. • 7. Proportion of patients with hypotension (MAP (Mean Arterial Pressure)<70 mm Hg or requirement for inotropes or vasopressors to maintain blood pressure) at day 7 and day 14. • 8. Proportion of patients with acute kidney injury at day 7 and day 14. • 9. Time to hospital discharge.

The subject of another data set is IL-6. The data set is described as follows: Luminex cytokine levels in BAL: IL-6. Conditions: vs vehicle disease control.
Setting [3] is: 100 mg/kg PO single dose 1 h post-LPS, 8 hours post-LPS.
[4] abbreviates: 300 mg/kg PO single dose 1 h post-LPS, 8 hours post-LPS.
Where [5] appears, read: 100 mg/kg PO QD days -2 to 0 (final dose 1 h pre-LPS), 6 hours post-LPS.
[6] abbreviates: 100 mg/kg PO QD days -2 to 0 (final dose 7 h post-LPS), 24 hours post-LPS.
[7] abbreviates: day 7 and day 14, compared to placebo.

Molecules are shown by their SMILES. “Also recorded” adds a separate entry of the source.

On to `O=C(O)CNC(=O)c1ncc(-c2cccc(Cl)c2)cc1O` [Compound 1, {[5-(3-chlorophenyl)-3-hydroxypyridine-2-carbonyl]amino}acetic acid], for which the “absolute body weight change” value in data set [1] (100 mg/kg PO QD days -2 to 0 (final dose 7 h post-LPS, 4 doses), 24 hours post-LPS) is reported as “did not differ statistically”; in data set [1] (setting [3]), “no significant differences”; in data set [1] (300 mg/kg PO QD days -2 to 0 (final dose 7 h post-LPS, 4 doses), 24 hours post-LPS) it was “did not differ statistically”; in data set [1] (setting [4]) it was “no significant differences”. For the same molecule, in data set [1] (300 mg/kg PO QD days -2 to 0 (final dose 1 h pre-LPS)), the “body weight change from day -2” value is “Significantly increased body weight loss; also recorded: statistically significant absolute weight loss”. Besides, the “TNFα levels in BAL fluids” value in the data set with TNFα (setting [5]) was “did not differ statistically”; in the data set with TNFα (setting [6]) it was “Significantly increased; also recorded: significant increases”; in the data set with TNFα (setting [3]), “decrease in IL-6 and TNFα levels at 8 hours post-LPS compared to vehicle disease control, though not statistically significant; also recorded: no significant differences”; in the data set with TNFα (setting [4]), “decrease in IL-6 and TNFα levels at 8 hours post-LPS compared to vehicle disease control, though not statistically significant; also recorded: no significant differences”. Moreover, the “proportions of patients with a score of 0 on the MSOFA” value in data set [2] (at 14 days, compared to placebo) was “an increase”. In data set [2] (compared to placebo), the “proportion of patients who develop ARDS or experienced increased ARDS severity from baseline based on the Berlin scale” value is listed as “a lower or a reduction”. Further, the “average MSOFA scores” value in data set [2] (setting [7]) was “a lower or a reduction”. Also, the overall survival result in data set [2] (setting [7]) is reported as “a greater or an increase”. In addition, the “proportion of patients with hypotension (MAP <70 mm Hg or requirement for inotropes or vasopressors)” value in data set [2] (setting [7]) is “a lower or a reduction”. Moreover, the ventilator-free survival result in data set [2] (setting [7]) was “a greater or an increase”. Also, the “proportion of patients with acute kidney injury” value in data set [2] (day 7 and day 14, versus placebo) is listed as “a lower or a reduction”. Also, the “proportion of patients who are dead (8), on invasive mechanical ventilation or ECMO (7) or on non-invasive ventilation or high flow oxygen devices (6) on the NIAID-OS” value in data set [2] (day 14, compared to placebo) is reported as “a lower or a reduction”. In data set [2] (versus placebo), the “time to hospital discharge” value is reported as “a shorter or a reduction”. Further, the “IL-6 levels in BAL fluids” value in the data set on IL-6 (setting [5]) was “decrease in IL-6 levels at 6 hours post-LPS compared to vehicle disease control, though not statistically significant; also recorded: did not differ statistically”; with IL-6 (setting [6]), “Significantly increased; also recorded: significant increases”; in the data set with IL-6 (setting [3]), “decrease in IL-6 and TNFα levels at 8 hours post-LPS compared to vehicle disease control, though not statistically significant; also recorded: no significant differences”; in the data set with IL-6 (300 mg/kg PO QD days -2 to 0 (final dose 1 h pre-LPS), 6 hours post-LPS) it was “decrease in IL-6 levels at 6 hours post-LPS compared to vehicle disease control, though not statistically significant”; with IL-6 (setting [4]), “decrease in IL-6 and TNFα levels at 8 hours post-LPS compared to vehicle disease control, though not statistically significant; also recorded: no significant differences”.
Turning to `C[C@@H]1C[C@H]2[C@@H]3CCC4=CC(=O)C=C[C@]4(C)[C@@]3(F)[C@@H](O)C[C@]2(C)[C@@]1(O)C(=O)CO` [dexamethasone, reference compound], the “body weight change from day -2” value in data set [1] (3 mg/kg PO 1x 1 h pre-LPS) is listed as “did not differ statistically”.

The record behind these values is patent US20250352527A1, “METHODS FOR TREATING VIRAL INFECTIONS, ORGAN INJURY, AND RELATED CONDITIONS” (Akebia Therapeutics, Inc., priority 2021, published 2025).
